Data on 13 compounds can be found in paper PMC10525516, “Novel NADPH Oxidase-2 Inhibitors as Potential Anti-Inflammatory and Neuroprotective Agents” (Antioxidants, 2023).

Structures can show the parent of a compound that is named as a salt. Some results are limits rather than exact numbers.

Usually IC50 stands for the concentration that inhibits the measured activity by half.

Data set [1] addresses T1, Nox2 (Homo sapiens, UniProt P04839).
T1 construct: endogenous in cells
T1 sequence (P04839 2-570 limits assumed): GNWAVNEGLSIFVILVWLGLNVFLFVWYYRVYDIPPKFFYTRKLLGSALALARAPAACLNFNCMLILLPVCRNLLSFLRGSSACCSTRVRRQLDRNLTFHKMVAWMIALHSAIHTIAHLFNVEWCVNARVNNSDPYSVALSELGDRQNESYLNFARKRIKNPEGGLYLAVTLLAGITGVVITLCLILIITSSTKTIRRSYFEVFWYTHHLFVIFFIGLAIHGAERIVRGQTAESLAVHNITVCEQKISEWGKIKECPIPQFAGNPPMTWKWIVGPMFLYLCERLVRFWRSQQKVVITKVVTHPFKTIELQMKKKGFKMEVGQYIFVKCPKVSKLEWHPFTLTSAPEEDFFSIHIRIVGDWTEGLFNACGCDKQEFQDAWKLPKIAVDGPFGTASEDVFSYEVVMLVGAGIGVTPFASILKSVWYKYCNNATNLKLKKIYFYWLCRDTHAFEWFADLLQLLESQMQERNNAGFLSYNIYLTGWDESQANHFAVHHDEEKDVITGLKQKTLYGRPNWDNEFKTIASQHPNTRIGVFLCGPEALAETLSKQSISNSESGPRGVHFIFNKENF
T1 sequence (P13498 2-195 partner limits assumed): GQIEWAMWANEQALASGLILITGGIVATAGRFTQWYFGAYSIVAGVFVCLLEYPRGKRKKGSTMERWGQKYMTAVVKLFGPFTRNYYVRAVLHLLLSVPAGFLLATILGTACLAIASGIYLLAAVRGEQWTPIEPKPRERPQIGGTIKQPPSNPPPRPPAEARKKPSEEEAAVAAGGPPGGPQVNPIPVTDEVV
The experiment in a line: CBA probe assay of H2O2 production by PMA-activated dHL60 cells. The data set is classed as cell-based. The conditions noted are these: for Nox2 inhibitory activity: tested at concentrations of up to 50 µM; for IC50: PMA (1 µM)-activated dHL60 cells, 30 min preincubation with inhibitor, read-out: IC50, inhibition of H2O2 production, CBA Assay; for Nox2 inhibitory potency (SAR statement): replacement of the indole moiety, data not shown. Here is the method: (§1) Human promyelocytic leukemia HL60 cells (Sigma-Aldrich) were grown in RPMI 1640 medium (Gibco, 11875-093, Billings, MT, USA) supplemented with 10% FBS (Omega Scientific (Tarzana, CA, USA)), 100 units/mL penicillin, and 100 µg/mL streptomycin, and were incubated at 37 °C and 5% carbon dioxide (CO2). For differentiation to neutrophil-like cells, HL60 cells were pelleted and resuspended in fresh media containing 1 µM of all trans-retinoic acid and incubated for four to five days. Nox2 activation was achieved by treating differentiated HL60 (dHL60) cells with 1 µM PMA [24]. Human leukemia monocytic cells, THP-1, were grown in RPMI 1640 medium + GlutaMAX^TM (Gibco, 61870-036) and supplemented with 10% FBS, 10 mM HEPES, and 1 mM sodium pyruvate and incubated at 37 °C in 5% CO2 environment. To induce differentiation into macrophages, THP-1 cells were treated with PMA (100 ng/mL) for 48 h. To test the efficacy of Nox2 inhibitors, treatment was performed with or without the inhibitor, along with PMA [35].
(§2) Plate reader-based analyses of the production of O2^•− and H2O2 by PMA-activated dHL60 cells were performed according to a published protocol with minor modifications. Briefly, for the treatment of dHL60 cells with different concentrations of the compounds, 0.5 mL deep-well 96-well plates were used to dispense and store aliquots of their 10 mM DMSO solutions. Using a Multidrop™ PicoIT dispenser (Thermo Scientific), different volumes of the solutions of candidate Nox inhibitors (10 or 50 mM in DMSO) were injected into the bottom of 0.5 mL V-bottom 96-well plates; then, they were sealed with aluminum foil (VWR, Batavia, IL, USA) using a semiautomatic thermal sealer (BT LabSystems, St. Louis, MO, USA) and stored at −20 °C to reduce freeze-thawing the solutions. The plates with inhibitors were allowed to come to room temperature before the addition of the cell suspensions. dHL60 cells were pelleted and resuspended in HBSS (Invitrogen, Waltham, MA, USA) supplemented with 25 mM HEPES (pH 7.4) and 100 µM DTPA to a cell density of 2 × 10^5 cells/mL. dHL60 cells were added to the V-bottom plates at a volume of 210 µL/well. Next, cells were incubated with inhibitors for 30 min at 37 °C in a CO2-free incubator under ambient oxygen and then transferred to black, clear-bottom 96-well plates (200 µL/well) after incubation. Freshly prepared PMA plus probe solutions in HBSS (5× concentrated, 50 µL/well) included PMA (5 µM) with CBA (500 µM) or with Amplex Red (250 µM) plus HRP (0.5 U/mL) for H2O2 detection, or with HE (50 µM) plus DNA (0.5 mg/mL) for O2^•− detection. Once probes + PMA were added, plates were sealed with sealing film and immediately placed in the pre-warmed plate readers (37 °C). Fluorescence intensities were monitored kinetically from the bottom of the plates every 1.3 min for a period of 2 h using Beckman Coulter (Brea, CA, USA) DTX880 and BMG Labtech (Ortenberg, Germany) FLUOstar Omega plate readers. DMSO alone and DPI (10 µM) were used as negative and positive controls, respectively. […] The IC50 values were determined using at least five independent measurements, each consisting of technical quadruplicates per concentration.

Data set [2] concerns the target T1, Nox2. The experiment in a line: Amplex Red/HRP assay of H2O2 production by PMA-activated dHL60 cells. The data set is classed as cell-based. The settings on record: for IC50: PMA (1 µM)-activated dHL60 cells, 30 min preincubation, read-out: IC50, inhibition of H2O2 production, Amplex Red Assay. Here is the method: as §1, §2
In a further data set the test system is dHL60 cells. Kind of data set: Cell Titer Glo 2.0 cytotoxicity (ATP) assay in PMA-stimulated dHL60 cells. The data set is classed as cell-based, human. The conditions noted are these: for IC50: Homo sapiens, Cell Titer Glo 2.0, PMA-stimulated dHL60 cells, 2.5 h with inhibitor, unit not printed in Table 3, taken from text, read-out: IC50, Viability Assay. The protocol:
The cytotoxicity of the inhibitors was tested by measuring the amount of ATP in the wells containing PMA-stimulated dHL60 cells and the candidate inhibitors. Cells were prepared as described for the plate reader-based measurements for H2O2, except that the cells were maintained with the inhibitors in a CO2-free incubator at 37 °C for 2.5 h to mirror the conditions during the fluorescence-based monitoring of H2O2 described above. After incubation, cells (100 µL/well) were transferred to white 96-well plates (Greiner, Kremsmünster, Austria), and the total cellular ATP amount was determined using the Cell Titer Glo 2.0 (Promega) cytotoxicity assay (100 µL/well) by measuring the luminescence intensity using a Beckman Coulter DTX880 plate reader.
A general note: In ATP-based viability assays light output follows the ATP content of the culture.

A short description of data set [3]: In vivo pharmacokinetics / brain penetration, species not specified (rodent models). The conditions noted are these: brain; species and dose not stated; data not shown; read-out: brain-to-plasma ratio. An excerpt:
Rapid metabolism and the inability to cross the BBB represent major obstacles in the application of bioactive agents in neurodegenerative diseases. Based on the premise that Nox2 plays a major role in oxidative damage and exacerbates neurodegenerative diseases, we envision applications of brain-permeable Nox2 inhibitors in mechanistic studies in vivo, and, long-term, in the development of novel therapeutic strategies. Therefore, we performed in vivo pharmacokinetics studies to determine the time profile of plasma concentration and accumulation of TG15-132 in the brain tissue of Sprague Dawley rats and C57BL6 mice.

Data set [4] concerns Nox2. Set-up: method as in PMID 22726689. The conditions noted are these: library of >200,000 compounds; cited from earlier work.
Data set [5] is described as follows: Short-term (seven day) in vivo toxicity in mice. Also on record: species or system C57BL/6 mice. The settings on record: 20 mg/kg, seven days, Figure 9B. The protocol: All animal experiments were performed according to protocols and guidelines approved by the Emory University Animal Care and Use Committee. The in vivo toxicity of TG15-132 was assessed using C57BL/6 mice (cat. no. 027, Charles River Laboratories, Wilmington, MA, USA). Animals were injected daily (i.p.) with saline, vehicle (DMSO 10%, PEG400 30%, water 60%), or 20 mg/kg of TG15-132 in vehicle for seven days, with body weight recorded each day. At the end of treatment, organs were harvested to study organ weight loss, and blood was collected from each mouse via cardiac puncture, and serum was isolated. Serum was analyzed for kidney function using blood urea nitrogen and creatinine, liver function using alanine amino transferase, and tissue damage using lactate dehydrogenase.

Another data set deals with THP-1 cells. Kind of data set: qRT-PCR mRNA expression of Nox2 subunits and inflammatory mediators in PMA-treated THP-1 cells. The data set is classed as cell-based, human. The conditions noted are these: 3 µM, 48 h with PMA 100 ng/mL. Here is the method:
as §1
mRNA expression analysis was performed as previously described. Briefly, THP-1 cells were treated with PMA (100 ng/mL) with or without the Nox2 inhibitor TG15-132 (3.0 µM) for 48 h. RNA extraction was done using the Quick-RNA miniprep kit (cat. no. R1055, Zymo Research, Irvine, CA, USA) and followed by cDNA synthesis using the qScript cDNA superMix kit (cat. no. 84035, Quantabio, Beverly, MA, USA). Quantitative real-time PCR was performed using specific primers designed to amplify target genes (Table 2). Data obtained were analyzed and converted into fold changes in expression with respect to vehicle-treated cells.
On the technique in general: Real-time PCR tracks product formation cycle by cycle.

For the compound `COc1cc(C(C)=O)ccc1O` [apocynin, reference compound], on Nox2 [1], the Nox2 inhibitory activity entry was “did not show Nox2 inhibitory activity”.

On to `CC(C)N1CCN(CCCn2c(SCCc3c[nH]c4ccccc34)nc3ccc(F)cc3c2=O)CC1` [TG17-57], for which the results for the IC50 on Nox2 [2], in the data set with dHL60 cells and on Nox2 [1] were 9.2 ± 0.4 µM, 20.7 ± 5 µM and 7 ± 2.8 µM, respectively.

With `CC(C)N1CCN(C(=O)CCCn2c(SCCc3c[nH]c4ccccc34)nc3ccc(F)cc3c2=O)CC1` [TG15-293], the half-inhibitory concentration (IC50) on Nox2 [2] turned out to be 67.8 ± 2.6 µM; in the data set on dHL60 cells, 38.3 ± 7.5 µM; on Nox2 [1] it was 23.6 ± 18.1 µM. The “fold less potency than TG17-57 in the Amplex Red assay” value at Nox2 [2] (relative to TG17-57) is “about 7 fold”. In addition, the “fold less potency than TG17-57 in the CBA assay” value at Nox2 [1] (relative to TG17-57) is “about 3 fold”.

For `COc1cc(C(C)=O)cc(-c2cc(C(C)=O)cc(OC)c2O)c1O` [diapocynin, reference compound], the Nox2 inhibitory activity entry on Nox2 [1] is “did not show Nox2 inhibitory activity”.

Regarding `CCN1CCN(CCCn2c(SCCc3c[nH]c4ccccc34)nc3ccc(F)cc3c2=O)CC1` [TG17-56], the IC50 at Nox2 [2] is 7.8 ± 4 µM; in the data set on dHL60 cells, 16.7 ± 2.5 µM; on Nox2 [1] it was 5.3 ± 0.6 µM.

`CN(C)CCCn1c(SCCc2ccccn2)nc2ccc(F)cc2c1=O` [TG15-131]: at Nox2 [1], the “Nox2 inhibitory potency (SAR statement)” value is “significant loss in Nox2 inhibitory potency”.

As to `CN(C)CCCn1c(SCCc2c[nH]c3ccccc23)nc2ccc(Cl)cc2c1=O` [TG15-139], the half-maximal inhibitory concentration (IC50) on Nox2 [2] came to 4.9 ± 2.3 µM; with dHL60 cells it was 14.1 ± 1.7 µM; at Nox2 [1], 3.1 ± 1.4 µM. For the same compound, in the data set on dHL60 cells (dHL60 cells, Figure 3D,E), the “cell viability at concentrations showing Nox2 inhibitory potency” value was “no decrease in cell viability”. Besides, in data set [3], the Kp was greater than 23.

Consider `O=c1c2ccccc2[se]n1-c1ccccc1` [ebselen], for which the “Nox2 inhibition in cell-free HTS” value with Nox2 [4] was “modest Nox2 inhibitors”.

As to `CN(C)CCCn1c(SCCc2ccccn2)nc2ccc(Cl)cc2c1=O` [TG15-124], at Nox2 [1], the “Nox2 inhibitory potency (SAR statement)” value was “significant loss in Nox2 inhibitory potency”.

For the compound `CN(C)CCCSc1nc2ccc(F)cc2c(=O)n1CCCN(C)C` [TG17-55], the “Nox2 inhibitory potency (SAR statement)” value on Nox2 [1] is recorded as “eliminated potency”.

For the compound `CN(C)CCCn1c(SCCc2c[nH]c3ccccc23)nc2ccc(F)cc2c1=O` [TG15-132•HCl], the “liver or kidney function, tissue damage (serum BUN, CREAT, ALT, LDH)” value in data set [5] is reported as “did not lead to a negative effect”.

For the compound `CC(C)n1cc(-c2ccc3c(c2)N(C)CC3)c2c(NS(=O)(=O)c3ccn(C)n3)ccnc21` [GSK 2795039, reference compound], in the data set with THP-1 cells, the “expression of TNF compared with PMA-treated cells (Figure 7B)” value is listed as “increased”; the “mRNA expression vs PMA-treated cells, additional experiment (Figure 7B)” value was “did not reduce the expression of Nox2 components and inflammatory mediators”.

As to `c1ccc2c(c1)[I+]c1ccccc1-2` [DPI, Diphenyleneiodonium chloride, reference compound], the cytotoxic effects result with dHL60 cells (10 µM, Cell Titer Glo 2.0) is given as “did not show any cytotoxic effects”. Besides, the “inhibitory activity (positive control)” value on Nox2 [1] (10 µM) is on record as “consistently showed inhibitory activity”.
